According to BigSolDB 2.1:

SMILES: Cc1cccc(N(C)C(=S)Oc2ccc3ccccc3c2)c1
- solubility (mole fraction) (in acetic acid, 283.15 K): 0.00186
- solubility (mole fraction) (in acetic acid, 288.15 K): 0.00249
- solubility (mole fraction) (in acetic acid, 293.15 K): 0.00307
- solubility (mole fraction) (in acetic acid, 298.15 K): 0.00359
- solubility (mole fraction) (in acetic acid, 303.15 K): 0.0045
- solubility (mole fraction) (in acetic acid, 308.15 K): 0.00574
- solubility (mole fraction) (in acetic acid, 313.15 K): 0.00779
- solubility (mole fraction) (in acetic acid, 318.15 K): 0.00993
- solubility (mole fraction) (in acetic acid, 323.15 K): 0.0127
- solubility (mole fraction) (in acetic acid, 328.15 K): 0.0156
- solubility (mole fraction) (in ethanol, 283.15 K): 0.000558
- solubility (mole fraction) (in ethanol, 288.15 K): 0.000765
- solubility (mole fraction) (in ethanol, 293.15 K): 0.000957
- solubility (mole fraction) (in ethanol, 298.15 K): 0.00125
- solubility (mole fraction) (in ethanol, 303.15 K): 0.00161
- solubility (mole fraction) (in ethanol, 308.15 K): 0.00196
- solubility (mole fraction) (in ethanol, 313.15 K): 0.00241
- solubility (mole fraction) (in ethanol, 318.15 K): 0.00287
- solubility (mole fraction) (in ethanol, 323.15 K): 0.00365
- solubility (mole fraction) (in ethanol, 328.15 K): 0.00448
- solubility (mole fraction) (in ethylene glycol, 283.15 K): 5.01e-05
- solubility (mole fraction) (in ethylene glycol, 288.15 K): 5.88e-05
- solubility (mole fraction) (in ethylene glycol, 293.15 K): 7.5e-05
- solubility (mole fraction) (in ethylene glycol, 298.15 K): 8.76e-05
- solubility (mole fraction) (in ethylene glycol, 303.15 K): 0.000107
- solubility (mole fraction) (in ethylene glycol, 308.15 K): 0.000129
- solubility (mole fraction) (in ethylene glycol, 313.15 K): 0.000156
- solubility (mole fraction) (in ethylene glycol, 318.15 K): 0.000201
- solubility (mole fraction) (in ethylene glycol, 323.15 K): 0.000258
- solubility (mole fraction) (in ethylene glycol, 328.15 K): 0.00031
- solubility (mole fraction) (in isobutanol, 283.15 K): 0.000544
- solubility (mole fraction) (in isobutanol, 288.15 K): 0.000734
- solubility (mole fraction) (in isobutanol, 293.15 K): 0.000933
- solubility (mole fraction) (in isobutanol, 298.15 K): 0.00137
- solubility (mole fraction) (in isobutanol, 303.15 K): 0.00174
- solubility (mole fraction) (in isobutanol, 308.15 K): 0.0025
- solubility (mole fraction) (in isobutanol, 313.15 K): 0.00316
- solubility (mole fraction) (in isobutanol, 318.15 K): 0.00409
- solubility (mole fraction) (in isobutanol, 323.15 K): 0.00544
- solubility (mole fraction) (in isobutanol, 328.15 K): 0.00705
- solubility (mole fraction) (in isopropanol, 283.15 K): 0.000365
- solubility (mole fraction) (in isopropanol, 288.15 K): 0.00054
- solubility (mole fraction) (in isopropanol, 293.15 K): 0.000731
- solubility (mole fraction) (in isopropanol, 298.15 K): 0.000965
- solubility (mole fraction) (in isopropanol, 303.15 K): 0.00125
- solubility (mole fraction) (in isopropanol, 308.15 K): 0.00168
- solubility (mole fraction) (in isopropanol, 313.15 K): 0.00225
- solubility (mole fraction) (in isopropanol, 318.15 K): 0.00273
- solubility (mole fraction) (in isopropanol, 323.15 K): 0.00357
- solubility (mole fraction) (in isopropanol, 328.15 K): 0.00437
- solubility (mole fraction) (in methanol, 283.15 K): 0.000402
- solubility (mole fraction) (in methanol, 288.15 K): 0.0005
- solubility (mole fraction) (in methanol, 293.15 K): 0.000691
- solubility (mole fraction) (in methanol, 298.15 K): 0.000843
- solubility (mole fraction) (in methanol, 303.15 K): 0.00102
- solubility (mole fraction) (in methanol, 308.15 K): 0.00119
- solubility (mole fraction) (in methanol, 313.15 K): 0.00149
- solubility (mole fraction) (in methanol, 318.15 K): 0.00181
- solubility (mole fraction) (in methanol, 323.15 K): 0.00224
- solubility (mole fraction) (in methanol, 328.15 K): 0.00267
- solubility (mole fraction) (in n-butanol, 283.15 K): 0.00082
- solubility (mole fraction) (in n-butanol, 288.15 K): 0.00115
- solubility (mole fraction) (in n-butanol, 293.15 K): 0.00154
- solubility (mole fraction) (in n-butanol, 298.15 K): 0.00207
- solubility (mole fraction) (in n-butanol, 303.15 K): 0.00264
- solubility (mole fraction) (in n-butanol, 308.15 K): 0.00345
- solubility (mole fraction) (in n-butanol, 313.15 K): 0.00448
- solubility (mole fraction) (in n-butanol, 318.15 K): 0.00568
- solubility (mole fraction) (in n-butanol, 323.15 K): 0.0076
- solubility (mole fraction) (in n-butanol, 328.15 K): 0.0097
- solubility (mole fraction) (in n-octanol, 283.15 K): 0.00145
- solubility (mole fraction) (in n-octanol, 288.15 K): 0.00189
- solubility (mole fraction) (in n-octanol, 293.15 K): 0.00251
- solubility (mole fraction) (in n-octanol, 298.15 K): 0.00311
- solubility (mole fraction) (in n-octanol, 303.15 K): 0.004
- solubility (mole fraction) (in n-octanol, 308.15 K): 0.00526
- solubility (mole fraction) (in n-octanol, 313.15 K): 0.00708
- solubility (mole fraction) (in n-octanol, 318.15 K): 0.00896
- solubility (mole fraction) (in n-octanol, 323.15 K): 0.0115
- solubility (mole fraction) (in n-octanol, 328.15 K): 0.0148
- solubility (mole fraction) (in n-propanol, 283.15 K): 0.000679
- solubility (mole fraction) (in n-propanol, 288.15 K): 0.00104
- solubility (mole fraction) (in n-propanol, 293.15 K): 0.00136
- solubility (mole fraction) (in n-propanol, 298.15 K): 0.00171
- solubility (mole fraction) (in n-propanol, 303.15 K): 0.00218
- solubility (mole fraction) (in n-propanol, 308.15 K): 0.00286
- solubility (mole fraction) (in n-propanol, 313.15 K): 0.00351
- solubility (mole fraction) (in n-propanol, 318.15 K): 0.00451
- solubility (mole fraction) (in n-propanol, 323.15 K): 0.00606
- solubility (mole fraction) (in n-propanol, 328.15 K): 0.00772
- solubility (mole fraction) (in propylene glycol, 283.15 K): 0.000155
- solubility (mole fraction) (in propylene glycol, 288.15 K): 0.000214
- solubility (mole fraction) (in propylene glycol, 293.15 K): 0.000264
- solubility (mole fraction) (in propylene glycol, 298.15 K): 0.000335
- solubility (mole fraction) (in propylene glycol, 303.15 K): 0.000413
- solubility (mole fraction) (in propylene glycol, 308.15 K): 0.000542
- solubility (mole fraction) (in propylene glycol, 313.15 K): 0.00068
- solubility (mole fraction) (in propylene glycol, 318.15 K): 0.000785
- solubility (mole fraction) (in propylene glycol, 323.15 K): 0.000953
- solubility (mole fraction) (in propylene glycol, 328.15 K): 0.00125
